Results published in patent EP1257552B1, “XANTHINE DERIVATIVES, INTERMEDIATES AND USE FOR TREATING OSTEOPOROSIS” (Aventis Pharma S.A., priority 2000, dated 2001).

Legend:
Type in all cases: in vivo
OS TIBIA = assay: Bone mineral density (DEXA) of the tibia in the ovariectomised rat osteopenia model, preventive treatment; conditions: once daily, 5 days/week for 4 weeks, (BMD treated - BMD OVX)/(BMD SHAM - BMD OVX) x 100
Procedure: (§1) L'impact osseux de ces dérivés xanthine a été évalué sur un modèle d'ostéopénie, la rate ovariectomisée à l'âge de 3 mois, afin de déterminer ses effets sur la masse osseuse, et sur l'activité de formation et de résorption osseuse. Les animaux sont traités en préventif.
(§2) Sur ce modèle d'ostéopénie l'effet de ces dérivés xanthine est comparé à celui de la PTH • Produit à tester : composé de l'exemple 1 • véhicule(s) : méthylcellulose 0,5 % ou sérum physiologique • dose(s) : 10 mg/kg pour le produit. la PTH est administrée à la dose de 10 µg ou 25 µg/kg/j par voie sous cutanée • nombre d'administrations : une fois/jour; 5 jours/semaine pendant 4 semaines • voie d'administration : voie orale pour le produit. La PTH est administrée par voie sous cutanée • volume : 1 ml/kg p o et s c • délai entre l'injection et le sacrifice : 24 heures • nombre d'administrations : 20
(§3) Des rats femelles âgées de 3 mois et pesant environ 250-300 g sont ovariectomisées sous anesthésie à l'Imalgène 1000, à la dose de 100 mg/kg par voie intrapéritonéale (i.p) et sous un volume de 1 ml/kg. Ils reçoivent également du Nembutal (3 mg/kg i.p. sous un volume de 0,3 ml/kg). Les animaux sont répartis en groupes de 8 rats. Après incision latérale, les plans cutanés et musculaires sont sectionnés. L'exérèse de chaque ovaire se fait après ligature de l'oviducte. Les rats "SHAM" sont anesthésiés dans les mêmes conditions. Après incision des plans cutanés et musculaires, chaque ovaire est exposé puis replacé in situ.
(§4) Les effets des produits sont déterminés après un traitement préventif. Les traitements débutent 24 heures après ovariectomie. Les animaux sont traités pendant 4 semaines, et se répartissent de la façon suivante : • un groupe témoin Sham recevant le ou les véhicules • un groupe témoin OVX recevant le ou les véhicules • OVX + dérivé xanthine • OVX + PTH
La masse osseuse (BMD ou Bone Mineral Density = densité minérale osseuse) est mesurée par absorptiométrie biphotonique à rayons X à double énergie (DEXA). Les mesures sont réalisées sur les os excisés et débarrassés de tous les tissus mous. […]

UTERUS = assay: Uterus weight in the ovariectomised rat osteopenia model; conditions: 4 weeks, weight increase in % of uterus weight of OVX animals receiving solvent only
Procedure: as §1, §2, §3, §4
Les utérus sont prélevés. Ces derniers sont pesés. L'augmentation du poids est exprimée, en % du poids de l'utérus des animaux ovariectomisés ne recevant que le solvant. • au niveau osseux : […]

Cholestérol = assay: Serum cholesterol level in the ovariectomised rat osteopenia model; conditions: 4 weeks, decrease of serum cholesterol in % versus OVX animals receiving solvent only
Procedure: as §1, §2, §3, §4
Au terme des 4 semaines de traitement, les animaux sont décapités par guillotine. Les sérums recueillis après centrifugation sont conservés à -20°C. […]

Question: With `O=c1c2[nH]cnc2n(-c2ccccc2)c(=O)n1Cc1ccncc1` [ex 1, chlorhydratede 3,7-dihydro-3-phényl-1-(4-pyridinylméthyl)-1H-purine-2,6-dione] as the compound, how does the “OS TIBIA Densité %” value (OS TIBIA; 10 mg/kg po) read?
Answer: 60%

Question: What about the “UTERUS Poids %” value (UTERUS; 10 mg/kg po) of the same compound?
Answer: 15%

Question: What about the Cholestérol % (Cholestérol; 10 mg/kg po) of the same compound?
Answer: Pas d'effet

Question: How did the “OS TIBIA Densité %” value (OS TIBIA; 10 µg/kg sc) turn out when PTH was run?
Answer: 69%

Question: What about the “OS TIBIA Densité %” value (OS TIBIA; 25 µg/kg sc) of the same compound?
Answer: 100%

Question: What about the “UTERUS Poids %” value (UTERUS; 10 µg/kg sc) of the same compound?
Answer: Pas d'effet

Question: And the “UTERUS Poids %” value (UTERUS; 25 µg/kg sc)?
Answer: 9%

Question: What about the Cholestérol % (Cholestérol; 10 µg/kg sc) of the same compound?
Answer: Pas d'effet

Question: What about the Cholestérol % (Cholestérol; 25 µg/kg sc) of the same compound?
Answer: Pas d'effet
